Literature values in US7074430B2, “Controlled release tramadol tramadol formulation” (Euro-Celtique S.A., priority 1994, dated 2006).

Details: value taken for the deconvolution technique

For `COc1cccc([C@@]2(O)CCCC[C@H]2CN(C)C)c1` (racemic) [tramadol, (±)-trans-2-[(dimethylamino)methyl]-1-(3-methoxyphenyl) cyclohexanol], the elimination half life is listed as 7.8 h.
